{
  "source": "patent US20100240617A1",
  "about": "“BICYCLIC SPHINGOSINE 1-PHOSPHATE ANALOGS” (University of Virginia Patent Foundation, priority 2007, published 2010)",
  "test_system": "lymphocytes in blood",
  "assay": "lymphopenia assay",
  "format": "in vivo",
  "conditions": "mice, 8 doses, 3 mice per dose",
  "experimental": "Compounds (e.g., primary alcohols such as compound VIII) are dissolved in 2% hydroxypropyl beta-cyclodextrin and introduced into groups of mice by oral gavage at doses from 0.01, 1.0 and 10 mg/kg body weight. After 24 hours and 48 hours, the mice are lightly anesthetized and ca. 0.1 ml of blood is drawn from the orbital sinus. The number of lymphocytes (in thousands per microliter of blood; normal is 4-11) is determined using a Hemavet blood analyzer. There are three mice/group, the strain was mixed sv129×C57BL/6. Active compounds (e.g., compound VIII-C and compound VIII-D) are dissolved in acidified DMSO at 20 mM, and diluted 1:20 into 2% hydroxypropyl beta-cyclodextrin in water with mixing. […]",
  "data": [
    {"smiles": "CCCCCCCCc1ccc2c(c1)CCC(C(N)(CO)CO)C2", "note": "(single isomer, unassigned; (+)) [VIII-A, (+)-2-Amino-2-(6-octyl-1,2,3,4-tetrahydro-naphthalen-2-yl)-propane-1,3-diol]", "values": [
      {"measurement": "ED50 in the lymphopenia assay", "result": 0.2, "unit": "mg/kg"}
    ]},
    {"smiles": "CCCCCCCCc1ccc2c(c1)CCC(C(N)(CO)CO)C2", "note": "(single isomer, unassigned; (-)) [VIII-B, (−)-2-Amino-2-(6-octyl-1,2,3,4-tetrahydro-naphthalen-2-yl)-propane-1,3-diol]", "values": [
      {"measurement": "ED50 in the lymphopenia assay", "result": 2, "unit": "mg/kg"}
    ]}
  ]
}
